Holding throughout (assay type): cell-based
The subject of experiment [1] is canine PBMCs. Briefly: IL-1β secretion by canine PBMCs (ELISA). The settings on record: two days in culture, R848 1 μg/mL, 22:0 LYSO PC 82.5 μM, concentration per mL and fold change per donor relative to R848 alone. As to the method: (§1) Isolation of PBMCs from Human and Canine Whole Blood. PBMCs were isolated from whole blood using density gradient centrifugation with Ficoll-Paque PLUS (Cytivia). Whole blood was diluted 1:1 with PBS, layered on top of Ficoll-Paque PLUS and centrifuged at 1000×g for 30 minutes at room temperature. PBMCs were collected, washed twice in PBS, and incubated with Ack lysis buffer (Lonza) to remove any remaining red blood cells.
(§2) Cell Culture and Stimulation. Immediately following isolation, PBMCs were plated in RPMI medium containing 10% FBS, 50 units/mL penicillin, […] streptomycin, 2 mM L-glutamine, 1 mM sodium pyruvate, and […] beta-mercaptoethanol (R10 media). […]
(§3) Endpoint Analyses. […] Half of the media volume in the wells was collected for cytokine quantification by Enzyme-Linked Immunosorbent Assay (ELISA) or Lumit™ Bioluminescent assay, while the remaining media and cells were used to quantify cell viability by assessing metabolic activity.
(§4) Quantification of Cytokine Secretion. IL-1β secretion from human PBMCs was assessed using one of the following kits: ELISA MAX Deluxe Set Human IL-1β kit (Biolegend), Invitrogen Human IL-1β kit, or the Lumit™ Human IL-1β Immunoassay (Promega). IFNγ secretion from human PBMCs was assessed using the ELISA MAX Deluxe Set Human IFNγ (Biolegend) and TNFα secretion from human PBMCs was assessed using the Human TNFα Uncoated ELISA kit (Invitrogen). […]
On the technique in general: ELISA stands for enzyme-linked immunosorbent assay.

In experiment [2] the test system is human PBMCs. Briefly: IFNγ secretion by human PBMCs (ELISA). The settings on record: two days post-hyperactivation. As to the method:
as §1, §2, §3, §4

The test system of experiment [3] is human PBMCs. Briefly: IL-1β secretion by human PBMCs (ELISA or Lumit). The settings on record: two days in culture, R848 1 μg/mL. As to the method: as §1, §2, §3, §4

With “GM-CSF: human GM-CSF (Peprotech), innate agonist added at 10 ng/mL”, the IL-1β secretion entry in experiment [1] is “neither GM-CSF nor 2′3′cGAMP induced significant IL-1β secretion”; in experiment [3], “did not induce levels of IL-1β secretion from human PBMCs significantly above background levels”. Further, the “fold change per donor in IFNγ secretion relative to R848 alone” value in experiment [2] is listed as “neither GM-CSF nor 2′3′cGAMP elicited a substantial fold change”.
In the case of `Nc1nc2c(ncn2[C@@H]2O[C@@H]3COP(=O)(O)O[C@H]4[C@@H](O)[C@H](n5cnc6c(N)ncnc65)O[C@@H]4COP(=O)(O)O[C@@H]2[C@@H]3O)c(=O)[nH]1` [2′3′cGAMP, 2′3′ cGAMP, reference compound], the IL-1β secretion entry in experiment [1] is “neither GM-CSF nor 2′3′cGAMP induced significant IL-1β secretion”. For the same compound, in experiment [2], the “fold change per donor in IFNγ secretion relative to R848 alone” value is on record as “neither GM-CSF nor 2′3′cGAMP elicited a substantial fold change”.

For the origin of these results see patent US20250134994A1, “IMMUNOGENIC MRNA DELIVERY VEHICLES” (Corner Therapeutics, Inc., priority 2022, published 2025).
